Experimental data: US5200409A, “Composition and use of substituted 1,3-dithiolo-and 1,4-dithiinoquinoxalines as an antimicrobial” (The Dow Chemical Company, priority 1992, dated 1993)
Values after ≈ are worked out from the molar mass of the structure shown. Read-outs that look alike come from different tables or passages of the source.

Tests used:
[1] = test system: Enterobacter aerogenes (Ea); assay: Minimum inhibitory concentration (MIC) in nutrient agar; assay type: cell-based, Enterobacter aerogenes ATCC 13048; conditions: Klebsiella aerogenes, 48 h
Description: (§1) The minimum inhibitory concentration (MIC) for the compounds listed in Table I is determined for 9 bacteria, using nutrient agar: and 7 yeast and fungi, using malt yeast agar. A one percent solution of the test compound is prepared in a mixture of acetone and water. Nutrient agar is prepared at pH 6.8, representing a neutral medium, and at pH 8.2, representing an alkaline medium. The nutrient agars are prepared by adding 23 g of nutrient agar to one-liter of deionized water. In addition, the alkaline medium is prepared by adjusting a 0.04M solution of N-[tris-(hydroxymethyl)methyl]-glycine buffered deionized water with concentrated sodium hydroxide to a pH of […]. Malt yeast agar is prepared by adding 3 g yeast extract and 45 g malt agar per liter of deionized water. The specific agar is dispensed in 30 ml aliquots into 25×200 mm test tubes, capped and autoclaved for 15 minutes at 115° C. The test tubes containing the agar are cooled in a water bath until the temperature of the agar is 48° C. Then, an appropriate amount of the one percent solution of the test compound is added (except in the controls where no compound is added) to the respective test tubes so that the final concentrations are 500, 250, 100, 50, 25, 10, 5, 2.5, 1.0 and zero parts per million of the test compound in the agar, thus having a known concentration of test compound dispersed therein. The contents of the test tubes are then transferred to respective petri plates. After drying for 24 hours, the petri plates containing nutrient agar are inoculated with bacteria and those containing malt yeast agar are inoculated with yeast and fungi.
(§2) The inoculation with bacteria is accomplished by using the following procedure. Twenty-four hour-cultures of each of the bacteria are prepared by incubating the respective bacteria in tubes containing nutrient broth for 24 hours at 30° C. in a shaker. Dilutions of each of the 24 hour-cultures are made so that nine separate suspensions (one for each of the nine test bacteria) are made, each containing 10^8 colony forming units (CFU) per ml of suspension of a particular bacteria. Aliquots of 0.3 ml of each of the bacterial suspensions are used to fill the individual wells of Steer's Replicator. For each microbial suspension, 0.3 ml was used to fill three wells (i.e., three wells of 0.3 ml each) so that for the nine different bacteria, 27 wells are filled. The Steer's Replicator is then used to inoculate both the neutral and alkaline pH nutrient agar petri plates.
(§3) The inoculated petri plates are incubated at 30° C. for 48 hours and then read to determine if the test compound which is incorporated into the agar prevented growth of the respective bacteria.
(§4) Table II lists the bacteria, yeast and fungi used in the MIC test described above along with their respective American Type Culture Collection (ATCC) identification numbers.

[2] = test system: Staphylococcus aureus (Sa); assay: as above; assay type: cell-based, Staphylococcus aureus ATCC 6538; conditions: 30° C., 48 hours, read-out: Minimum Inhibitory Concentration, Sa
Description: as §1, §2, §3, §4

Trichoderma viride (Tv) = assay: Minimum inhibitory concentration (MIC) in malt yeast agar; assay type: cell-based, Trichoderma viride ATCC 8678; conditions: read-out: Minimum Inhibitory Concentration, Tv
Description: as §1
(§5) The inoculation with the yeast and fungi is accomplished as follows. Cultures of yeast and fungi are incubated for seven days on malt yeast agar at 30° C. These cultures are used to prepare suspensions by the following procedure. A suspension of each organism is prepared by adding 10 ml of sterile saline and 10 microliters of octylphenoxy polyethoxy ethanol to the agar slant of yeast or fungi. The sterile saline/octylphenoxy polyethoxy ethanol solution is then agitated with a sterile swab to suspend the microorganism grown on the slant. Each resulting suspension is diluted into sterile saline (1 part suspension: 9 parts sterile saline). Aliquots of these dilutions are placed in individual wells of Steer's Replicator and petri plates inoculated as previously described. The petri plates are incubated at 30° C. and read after 48 hours for yeast and 72 hours for fungi.
as §4

Fusarium oxysporum (Fo) = assay: as above; assay type: cell-based, Fusarium oxysporum ATCC 48112; conditions: read-out: Minimum Inhibitory Concentration, Fo
Description: as §1, §5, §4

Escherichia coli (Ec) = assay: Minimum inhibitory concentration (MIC) in nutrient agar; assay type: cell-based, Escherichia coli ATCC 11229
Description: as §1, §2, §3, §4

[3] = test system: Pseudomonas aeruginosa (Pa); assay: as above; assay type: cell-based, Pseudomonas aeruginosa ATCC 10145; conditions: 48 hours
Description: as §1, §2, §3, §4

Bacillus subtilis (Bs) = assay: as above; assay type: cell-based, Bacillus subtilis ATCC 8473; conditions: 30° C., 48 hours, read-out: Minimum Inhibitory Concentration, Bs
Description: as §1, §2, §3, §4

[4] = test system: Klebsiella pneumoniae (Kp); assay: as above; assay type: cell-based, Klebsiella pneumoniae ATCC 8308
Description: as §1, §2, §3, §4

Candida albicans (Ca) = assay: Minimum inhibitory concentration (MIC) in malt yeast agar; assay type: cell-based, Candida albicans ATCC 10231; conditions: malt yeast agar; 30° C.; 48 hours for yeast; read-out: Minimum Inhibitory Concentration, Ca
Description: as §1, §5, §4

[5] = test system: Salmonella choleraesuis (Sc); assay: Minimum inhibitory concentration (MIC) in nutrient agar; assay type: cell-based, Salmonella choleraesuis ATCC 10708; conditions: Salmonella enterica
Description: as §1, §2, §3, §4

[6] = test system: Penicillium chrysogenum (Pc); assay: Minimum inhibitory concentration (MIC) in malt yeast agar; assay type: cell-based, Penicillium chrysogenum ATCC 9480; conditions: read-out: Minimum Inhibitory Concentration, Pc
Description: as §1, §5, §4

[7] = test system: Aureobasidium pullulan (Ap); assay: as above; assay type: cell-based, Aureobasidium pullulan ATCC 16622; conditions: malt yeast agar; 30° C.; 48 hours for yeast and 72 hours for fungi; read-out: Minimum Inhibitory Concentration, Ap
Description: as §1, §5, §4

Aspergillus niger (An) = assay: as above; assay type: cell-based, Aspergillus niger ATCC 16404; conditions: malt yeast agar; 30° C.; 72 hours for fungi; read-out: Minimum Inhibitory Concentration, An
Description: as §1, §5, §4

Proteus vulgaris (Pv) = assay: Minimum inhibitory concentration (MIC) in nutrient agar; assay type: cell-based, Proteus vulgaris ATCC 881
Description: as §1, §2, §3, §4

[8] = test system: Pseudomonas aeruginosa (PRD-10); assay: as above; assay type: cell-based, Pseudomonas aeruginosa ATCC 15442; conditions: 48 h
Description: as §1, §2, §3, §4

[9] = test system: Saccharomyces cerevisiae (Sc); assay: Minimum inhibitory concentration (MIC) in malt yeast agar; assay type: cell-based, Saccharomyces cerevisiae ATCC 4105; conditions: read-out: Minimum Inhibitory Concentration, Sc
Description: as §1, §5, §4

[10] = pH 6.8, read-out: Minimum Inhibitory Concentration, Ea
[11] = pH 8.2, read-out: Minimum Inhibitory Concentration, Ea
[12] = 48 h, pH 6.8, read-out: Minimum Inhibitory Concentration, Ec
[13] = 48 h, pH 8.2, read-out: Minimum Inhibitory Concentration, Ec
[14] = 48 h, pH 8.2, read-out: Minimum Inhibitory Concentration, Kp
[15] = pH 6.8, nutrient agar, 30° C., 48 hours, read-out: Minimum Inhibitory Concentration, Kp
[16] = 48 h, pH 6.8, read-out: Minimum Inhibitory Concentration, Sc
[17] = 48 h, pH 8.2, read-out: Minimum Inhibitory Concentration, Sc
[18] = 48 h, pH 6.8, read-out: Minimum Inhibitory Concentration, Pv
[19] = 48 h, pH 8.2, read-out: Minimum Inhibitory Concentration, Pv
[20] = pH 6.8, read-out: Minimum Inhibitory Concentration, PRD
[21] = pH 8.2, read-out: Minimum Inhibitory Concentration, PRD
[22] = malt yeast agar, 30° C., 72 hours for fungi
[23] = malt yeast agar, 30° C., 48 hours for yeast

SMILES	MIC [1, 10]	MIC [1, 11]	MIC ([2]; pH 6.8, nutrient agar)	MIC ([2]; pH 8.2, nutrient agar)	MIC (Trichoderma viride (Tv); 72 h)	MIC (Fusarium oxysporum (Fo); 72 h)	MIC (Escherichia coli (Ec); [12])	MIC (Escherichia coli (Ec); [13])	MIC ([3]; pH 6.8, 30° C.)	MIC ([3]; pH 8.2, 30° C.)	MIC (Bacillus subtilis (Bs); pH 6.8, nutrient agar)	MIC (Bacillus subtilis (Bs); pH 8.2, nutrient agar)	MIC [4, 14]	MIC (Candida albicans (Ca))	MIC [5, 17]	MIC [7]	MIC (Aspergillus niger (An))	MIC (Proteus vulgaris (Pv); [19])	MIC [8, 20]	MIC [8, 21]	other results
N#CC1=C(C#N)Sc2nc3cc([N+](=O)[O-])c(Cl)cc3nc2S1 [G, 7-chloro-8-nitro-1,4-dithiino-(2,3-b)-quinoxaline-2,3-dicarbonitrile]	> 500 µg/mL	> 500 µg/mL	25 µg/mL (≈ 71.9 µM)	50 µg/mL (≈ 144 µM)	100 µg/mL (≈ 288 µM)	100 µg/mL (≈ 288 µM)	> 500 µg/mL	> 500 µg/mL	> 500 µg/mL	> 500 µg/mL	250 µg/mL (≈ 719 µM)	100 µg/mL (≈ 288 µM)	> 500 µg/mL	25 µg/mL (≈ 71.9 µM)	> 500 µg/mL	25 µg/mL (≈ 71.9 µM)	25 µg/mL (≈ 71.9 µM)	> 500 µg/mL	> 500 µg/mL	> 500 µg/mL	MIC [4, 15]: 500 µg/mL (≈ 1440 µM); MIC [5, 16]: > 500 µg/mL; MIC ([6]; 72 h): 100 µg/mL (≈ 288 µM); MIC (Proteus vulgaris (Pv); [18]): > 500 µg/mL; MIC ([9]; 48 h): 25 µg/mL (≈ 71.9 µM)
COC(=O)c1ccc2nc3c(nc2c1)SC(C#N)=C(C#N)S3 [I, 7-carbomethoxy-1,4-dithiino-(2,3-b)-quinoxaline-2,3-dicarbonitrile]	> 500 µg/mL	> 500 µg/mL	25 µg/mL (≈ 76.6 µM)	100 µg/mL (≈ 306 µM)				> 500 µg/mL	500 µg/mL (≈ 1530 µM)	> 500 µg/mL	< 10 µg/mL	50 µg/mL (≈ 153 µM)	> 500 µg/mL	< 10 µg/mL	> 500 µg/mL	< 10 µg/mL	< 10 µg/mL	> 500 µg/mL	500 µg/mL (≈ 1530 µM)	> 500 µg/mL	MIC (Trichoderma viride (Tv); [22]): 25 µg/mL (≈ 76.6 µM); MIC (Fusarium oxysporum (Fo); [22]): < 10 µg/mL; MIC (Escherichia coli (Ec); pH 6.8, nutrient agar, 30° C., 48 hours, read-out: Minimum Inhibitory Concentration, Ec): 100 µg/mL (≈ 306 µM); MIC ([4]; 48 h, pH 6.8, read-out: Minimum Inhibitory Concentration, Kp): 50 µg/mL (≈ 153 µM); MIC ([5]; pH 6.8, nutrient agar, 30° C., 48 hours, read-out: Minimum Inhibitory Concentration, Sc): 100 µg/mL (≈ 306 µM); MIC [6, 22]: < 10 µg/mL; MIC (Proteus vulgaris (Pv); pH 6.8, nutrient agar, 30° C., 48 hours, read-out: Minimum Inhibitory Concentration, Pv): 100 µg/mL (≈ 306 µM); MIC [9, 23]: < 10 µg/mL
N#CC1=C(C#N)Sc2nc3cc(C#N)ccc3nc2S1 [H, 7-cyano-1,4-dithiino-(2,3-b)-quinoxaline-2,3-dicarbonitrile]	> 500 µg/mL	> 500 µg/mL	25 µg/mL (≈ 85.2 µM)	50 µg/mL (≈ 170 µM)	100 µg/mL (≈ 341 µM)	50 µg/mL (≈ 170 µM)	> 500 µg/mL	> 500 µg/mL	> 500 µg/mL	> 500 µg/mL	< 10 µg/mL	50 µg/mL (≈ 170 µM)	> 500 µg/mL	25 µg/mL (≈ 85.2 µM)	> 500 µg/mL	< 10 µg/mL	25 µg/mL (≈ 85.2 µM)	> 500 µg/mL	> 500 µg/mL	> 500 µg/mL	MIC [4, 15]: 500 µg/mL (≈ 1700 µM); MIC [5, 16]: > 500 µg/mL; MIC [6, 22]: < 10 µg/mL; MIC (Proteus vulgaris (Pv); [18]): 500 µg/mL (≈ 1700 µM); MIC [9, 23]: < 10 µg/mL
